These results are taken from patent publication US5955493A, “Thiamorphinans with neuroprotective activity” (priority 1995, dated 1999).

Bounds are passed on as bounds.

Series [1] has as its system NMDA-induced convulsion. The series is described as follows: Inhibition of NMDA-induced convulsion (i.c.v. coinjection). It is filed as in vivo, Male Swiss Webster mice. On the procedure:
Male Swiss Webster mice [(SW) fBR] 20-25 g (Canadian Breading Farms St. Constant, Quebec), were coinjected intracerebroventricullarly (i.c.v.) with various doses of test compound and NMDA (1 and 2 nmol; Sigma Chemical Co., St. Louis, Mo.) in total volume of 10 μl. […] The convulsive response to NMDA was within 5 minutes of injection, characterized by wild running, popcorn jumping and myoclonic seizures (i.e. repetitive movements involving all limbs simultaneously, usually accompanied by loss of righting reflex). A minimum of 15 animals were used in each treatment group. The number of mice convulsing in each group was recorded. The dose producing convulsions in 50% of the mice (CD50) was calculated by the method of Litchfield and Wilcoxon ("Manual and Pharmacological Calculations with Computer Programs", 2nd ed., Springer, N.Y., 1987).

The test system of series [2] is Mice. The series is described as follows: Rotarod test (motor effects). Conditions: i.c.v.; for Max. % mice showing motor effect: rotarod 8 revolutions per min, *P ≤ 0.05 as compared with control. It is filed as in vivo. The source says:
The rotarod treadmill for mice (model 7600, UGO Basile, Italy) was used to assess the motor effects of the test compounds. The method used was similar to the procedure described by Dunham and Miya (J. Am. Pharmac. Assoc., 1957, 46:208). The apparatus consisted of a rod with a diameter of 2.5 cm which was suspended horizontally 50 cm above a plain working area. The rod was turned at a speed of 8 revolutions per min. Circular perspex separators were placed at intervals along the rod so that five animals could be tested at the same time. Before administering any compound, all tested mice were placed on the turning rod for 1 min on two consecutive days. Mice that fell from the rod during this test were excluded. The test compounds were administered i.c.v. and the % of mice showing motor effects was monitored.
In general terms: Falling from the rotarod earlier than controls is read as motor impairment.

Series [3] has as its system AMPA-induced convulsions. Description: Inhibition of AMPA-induced convulsions. The following applies: i.c.v. The format is in vivo, Male Swiss Webster mice. The method, then: Male Swiss Webster mice [(SW) fBR]20-25 g, were coinjected intracerebroventricullarly (i.c.v.) with various doses of test compounds, α- and β-sulfallorphan, […]; Research Biochemical Inc.) kainic acid (0.25-0.75 nmol; Sigma Chemical Co.) and biculline (1-10 nmol; Research Biochemical Inc.) in total volume of 10 μl. […] The convulsive response to the AMPA, kainic acid and biculline was within 5 minutes of injection, characterized by wild running, popcorn jumping and myoclonic seizures (i.e. repetitive movements involving all limbs simultaneously, usually accompanied by loss of righting reflex). A minimum of 15 animals were used in each treatment group. The number of mice convulsing in each group was recorded. The dose producing convulsions in 50% of the mice (CD50) was calculated by the method of Litchfield and Wilcoxon. LD50, the dose producing mortality in 50% of the mice, was determined by Fisher's exect test. The results for both α- and β-sulfallorphan are summarized below in tables II and III.

In series [4] the test system is Bicuculline-induced convulsions. Description: Inhibition of bicuculline-induced convulsions. Conditions: i.c.v. It is filed as in vivo, Male Swiss Webster mice. On the procedure: (§1) Male Swiss Webster mice [(SW) fBR]20-25 g, were coinjected intracerebroventricullarly (i.c.v.) with various doses of test compounds, α- and β-sulfallorphan, with AMPA (0.25-2.0) nmol; Research Biochemical Inc.) kainic acid (0.25-0.75 nmol; Sigma Chemical Co.) and biculline (1-10 nmol; Research Biochemical Inc.) in total volume of 10 μl. […] The convulsive response to the AMPA, kainic acid and biculline was within 5 minutes of injection, characterized by wild running, popcorn jumping and myoclonic seizures (i.e. repetitive movements involving all limbs simultaneously, usually accompanied by loss of righting reflex). A minimum of 15 animals were used in each treatment group. The number of mice convulsing in each group was recorded. The dose producing convulsions in 50% of the mice (CD50) was calculated by the method of Litchfield and Wilcoxon. LD50, the dose producing mortality in 50% of the mice, was determined by Fisher's exect test. The results for both α- and β-sulfallorphan are summarized below in tables II and III.

Series [5] has as its system Kainic acid-induced convulsions. The series is described as follows: Inhibition of kainic acid-induced convulsions. It is filed as in vivo, Male Swiss Webster mice. Conditions: i.c.v. On the procedure: as §1
In series [6] the test system is Mice. The series is described as follows: Locomotion and falling behavior. It is filed as in vivo. The following applies: i.c.v.; for % mice showing significant effect (locomotion): at min. dose for locomotion; for min. dose for falling / min. dose for locomotion: observed 15 to 30 min after injection; for % mice showing significant effect (falling): at min. dose for falling. On the procedure:
Mice were placed individually in observation cages for a 60 minute habituation period, injected i.c.v. with the different compounds and observed from 15 to 30 min. after injection. Locomotion and falling behavior were assessed according to the procedure of Koek and Colpaert (J. Pharm. Exp. Ther., 1990, 252:349). For each mouse the presence of locomotion (locomotion with all four legs moving for at least 15 seconds) and falling behavior (falling from rearing or standing position backward or to the side) was recorded. Statistical significance of drug-induced changes in the occurrence of a particular behavior was tested by the method of Fray et al […].

As to `CN1CC[C@@]23CCCC[C@@H]2[C@@H]1Cc1ccc(O)cc13` [dextrorphan, reference compound], the CD50 in series [1] (1 nmol NMDA) is 0.55 nmol/mouse; in series [1] (2 nmol NMDA) it was more than 100 nmol/mouse. The “Max. % mice showing motor effect” value in series [2] stood at 60%. Besides, in series [2] (α-sulfallorphan 30 nmol/mouse, dextrorphan 60 nmol/mouse), the “motor effect (statement)” value is given as “induces a significant rise in motor effect”.
Molecule `C=CC[S+]1CC[C@]23CCCC[C@H]2[C@H]1Cc1ccc(O)cc13` (relative stereo) [compound 12, 3-hydroxy-17-deaza-17-allylthionium-17-thiamorphinan] showed a CD50 in series [1] (1 nmol NMDA) of 0.07 nmol/mouse.
In the case of `C=CC[S+]1CC[C@]23CCCC[C@H]2[C@H]1Cc1ccc(O)cc13` (stereo partly drawn) [β-sulfallorphan 16, 3-hydroxy-17-deaza-17-allylthionium-17-thiamorphinan], the CD50 in series [1] (1 nmol NMDA) is listed as 0.015 nmol/mouse; in series [1] (2 nmol NMDA), 0.28 nmol/mouse; in series [3] (CD50 of AMPA (0.25-5 nmol/mouse) with 0.4 nmol/mouse β-sulfallorphan), 0.29 nmol/mouse; in series [4] (CD50 of bicuculline (1-10 nmol/mouse) with 0.4 nmol/mouse β-sulfallorphan) it was 3.12 nmol/mouse; in series [5] (CD50 of kainic acid (0.25-0.72 nmol/mouse) with 0.4 nmol/mouse β-sulfallorphan), 0.39 nmol/mouse. The LD50 entry in series [3] (LD50 of AMPA (0.25-5 nmol/mouse) with 0.4 nmol/mouse β-sulfallorphan, none = no mortality observed at dose tested) is given as “none”; in series [4] (LD50 of bicuculline (1-10 nmol/mouse) with 0.4 nmol/mouse β-sulfallorphan, none = no mortality observed at dose tested) it was “none”; in series [5] (LD50 of kainic acid (0.25-0.72 nmol/mouse) with 0.4 nmol/mouse β-sulfallorphan, none = no mortality observed at dose tested), “none”. For the same molecule, in series [2], the “Max. % mice showing motor effect” value came out at 20%. Moreover, the “% mice showing significant effect (locomotion)” value in series [6] was determined as 20%. Besides, the “locomotion and falling behavior (statement)” value in series [6] is “less locomotion than dextromethorphan and required greater amount to exhibit a significant effect”. The “min. dose for falling” value in series [6] is given as “no effect”. Further, the “min. dose for locomotion” value in series [6] is on record as 1.25 nmol/mouse.
With `C=CCN1CC[C@]23CCCC[C@H]2[C@H]1Cc1ccc(O)cc13` [levallorphan], the CD50 in series [1] (1 nmol NMDA) is 1.06 nmol/mouse; in series [1] (2 nmol NMDA), more than 20 nmol/mouse.
For `C=CCN1CC[C@@]23CCCC[C@@H]2[C@@H]1Cc1ccc(O)cc13` [dextrallorphan] the same measures were 2.68 nmol/mouse and 43.2 nmol/mouse.
For `C[C@]12N[C@H](Cc3ccccc31)c1ccccc12` [MK-801], in series [6], the “% mice showing significant effect (falling)” value is given as 50%, the “% mice showing significant effect (locomotion)” value was 30%, the “min. dose for falling” value was determined as 1.50 nmol/mouse and the “min. dose for locomotion” value is reported as 0.25 nmol/mouse.
For `COc1ccc2c(c1)[C@]13CCCC[C@@H]1[C@H](C2)N(C)CC3` [dextromethorphan], in series [6], the “% mice showing significant effect (falling)” value is 27%, the “% mice showing significant effect (locomotion)” value was determined as 30%, the “min. dose for falling” value was determined as 0.20 nmol/mouse and the “min. dose for locomotion” value was 0.10 nmol/mouse.
As to `Oc1ccc2c(c1)[C@@]13CCCC[C@H]1[C@@H](C2)[S+](CCc1ccccc1)CC3` (relative stereo) [compound 14, 3-hydroxy-17-deaza-17-phenethylthionium-17-thiamorphinan], the CD50 in series [1] (1 nmol NMDA) was determined as 0.99 nmol/mouse. Besides, in series [2], the “Max. % mice showing motor effect” value is 20%.
Turning to `CN1CC[C@]23CCCC[C@H]2[C@H]1Cc1ccc(O)cc13` [levorphanol], the CD50 in series [1] (1 nmol NMDA) is 0.21 nmol/mouse; in series [1] (2 nmol NMDA) it was more than 200 nmol/mouse.
With `CC(C)=CC[S+]1CC[C@]23CCCC[C@H]2[C@H]1Cc1ccc(O)cc13` (relative stereo) [compound 13, 3-hydroxy-17-deaza-17-dimethylallylthionium-17-thiamorphinan], the CD50 in series [1] (1 nmol NMDA) turned out to be 0.19 nmol/mouse. Besides, the “Max. % mice showing motor effect” value in series [2] is 0%.
Turning to `C[S+]1CC[C@]23CCCC[C@H]2[C@H]1Cc1ccc(O)cc13` (relative stereo) [compound 17, 3-hydroxy-17-deaza-17-methylthionium-17-thiamorphinan], the CD50 in series [1] (1 nmol NMDA) was found to be 0.02 nmol/mouse. In addition, the “Max. % mice showing motor effect” value in series [2] came out at 60%.
